Where two headings read alike, the source gives them in different places. Marks after values point to notes of the source that are not given here. Bridge positions count the residues as written; N and C are the ends. Square brackets hold non-standard residues; d marks the D form. Ends that are not written are not given here. Peptide text beside a SMILES is read from it. * marks the point of attachment. X1 = CC[C@H](C)CCCCC(=O)*; Dab = NCC[C@H](N)C(=O)O
Columns and labels:
[1] = tested on: S. typhimurium (DA6192); assay: microbe, parasite or virus in culture; type: cell-based; conditions: 24 h at 37 °C, triplicate, read-out: Minimum inhibitory concentrations
Description: (§1) Minimum inhibitory concentrations (MICs) were determined by broth microdilution on P. aeruginosa (ATCC27853), E. coli (K12), S. aureus (ATCC6538), M. luteus (NCIMB13267), B. subtilis (ATCC6633), S. typhimurium (DA6192) and E. faecalis (OG1X) according to the Clinical and Laboratory Standards Institute and as recommended for antimicrobial peptide testing. […] The absorbance was measured after peptide addition at 600 nm using a Victor 2 plate reader (Perkin-Elmer). MICs were defined as the lowest peptide concentration after 24 h at 37 °C. The mutant strains of S. typhimurium, named using the original nomenclature, were kindly provided by Dan Andersson[55].

[2] = tested on: S. aureus (ATCC6538); assay: microbe, parasite or virus in culture; type: cell-based; conditions: read-out: Minimum inhibitory concentrations
Description: as §1

[3] = tested on: M. luteus (NCIMB13267); assay: microbe, parasite or virus in culture; type: cell-based; conditions: read-out: Minimum inhibitory concentrations
Description: as §1

[4] = tested on: P. aeruginosa (ATCC27853); assay: microbe, parasite or virus in culture; type: cell-based; conditions: read-out: Minimum inhibitory concentrations
Description: (§2) Minimum inhibitory concentrations (MICs) were determined by broth microdilution on P. aeruginosa (ATCC27853), E. coli (K12), S. aureus (ATCC6538), M. luteus (NCIMB13267), B. subtilis (ATCC6633), S. typhimurium (DA6192) and E. faecalis (OG1X) according to the Clinical and Laboratory Standards Institute and as recommended for antimicrobial peptide testing. Typically, 100 μL of 0.5–1 × 10^6 CFU per ml of each bacterium in Mueller Hinton media broth (Oxoid) were incubated in 96-well polystyrene microtiter plates with 100 μL of serial twofold dilutions of the peptides (from 100 to 0 μM) at 37 °C on a 3D orbital shaker. The absorbance was measured after peptide addition at 600 nm using a Victor 2 plate reader (Perkin-Elmer). MICs were defined as the lowest peptide concentration after 24 h at 37 °C. The mutant strains of S. typhimurium, named using the original nomenclature, were kindly provided by Dan Andersson[55].

[5] = tested on: B. subtilis (ATCC6633); assay: microbe, parasite or virus in culture; type: cell-based; conditions: read-out: Minimum inhibitory concentrations
Description: as §2

[6] = tested on: E. coli (K12); assay: microbe, parasite or virus in culture; type: cell-based; conditions: read-out: Minimum inhibitory concentrations
Description: as §2

[7] = tested on: human erythrocytes; conditions: for LC50, median (50%) lethal concentration: human erythrocytes; for hemolysis: 250 µM
Description: Hemolysis was determined by incubating a 10% (vol/vol) suspension of human erythrocytes with peptides. Erythrocytes were rinsed four times in 10 mM phosphate buffer saline (PBS), pH 7.2, by repeated centrifugation and re-suspension (3 min at 3000 × g). Erythrocytes were incubated at room temperature for 1 h in either deionized water (fully haemolysed control), PBS, or with peptide in PBS. After centrifugation at 10,000 × g for 5 min, the supernatant was separated from the pellet, and the absorbance was measured at 550 nm. Absorbance of the suspension treated with deionized water defined complete hemolysis. […] All tests were done in triplicate.

[8] = tested on: S. typhimurium DA22427 waaY (del bp17FS); assay: microbe, parasite or virus in culture; type: cell-based; conditions: for MIC: Salmonella enterica, TYPHIMURIUM, 24 h, read-out: Minimum inhibitory concentrations; for Minimum inhibitory concentrations: S. typhimurium mutant DA22427 waaY (del bp17FS), broth microdilution, 24 h at 37 °C, triplicate
Description: (§3) To explore these variations, the peptides were tested against cross-resistant strains of S. typhimurium, which were experimentally derived from the wild type bacterium subjected to increasing concentrations of pore-forming human HDPs[55]. Three genetic mutations were selected as candidate contributors to resistance and were reconstituted in the wild type genetic background, giving rise to the strains given in Table 2. One strain has the waaY gene mutated. This gene encodes for WaaY kinase that adds a phosphate group to the heptose II residue in the LPS inner core. The deactivation of the gene leads to decreased susceptibility to HDPs[56], as a result of reducing peptide binding to cell surfaces to the levels below those necessary to lyse the bacterium. Two other strains were mutated in pmrB and phoP genes, both of which are involved in masking phosphate groups (diminished charge) and influencing membrane fluidity (restricted motion)[58]. Finally, the fourth strain combined all three mutations (Table 2).
as §2

[9] = tested on: S. typhimurium DA23899 waaY, pmrB, phoP; assay: microbe, parasite or virus in culture; type: cell-based; conditions: for MIC: Salmonella enterica, TYPHIMURIUM, 24 h, read-out: Minimum inhibitory concentrations; for Minimum inhibitory concentrations: S. typhimurium mutant DA23899 waaY, pmrB, phoP, broth microdilution, 24 h at 37 °C, triplicate
Description: as §3, §2

[10] = for comparison, naturally occurring HDPs; cited from earlier work
Description: The improved amphipathicity of CecM compared to CecB was evaluated by calculating the mean hydrophobic moment using HeliQuest[70]. The mean hydrophobic moment is a two-dimensional vector sum which provides a direct, quantitative measure of amphipathicity in regular repeats. The mean hydrophobic moment increases from CecB (0.296) to CecM (0.350). For comparison, values for PGLa and magainin, two naturally occurring HDPs, are 0.260 and 0.286, respectively. Percentage of secondary structure elements was calculated using STRIDE[73]. Oligomerisation simulations were performed over 500 ns fo ...

[11] = tested on: S. typhimurium DA23175 pmrB (R13H); type: cell-based; conditions: S. typhimurium mutant DA23175 pmrB (R13H); broth microdilution, 24 h at 37 °C, triplicate
Description: as §3, §2

[12] = tested on: S. typhimurium DA23307 phoP (D23N); type: cell-based; conditions: S. typhimurium mutant DA23307 phoP (D23N); broth microdilution, 24 h at 37 °C, triplicate
Description: as §3, §2

[13] = S. typhimurium (Table 1), broth microdilution (CLSI), Mueller Hinton broth, absorbance 600 nm
[14] = 10% (vol/vol) suspension in PBS pH 7.2, 1 h at room temperature, absorbance 550 nm, triplicate (Table 1)
[15] = S. aureus, Ala-d3 ChoM mutants (Table S6), broth microdilution
[16] = P. aeruginosa, Ala-d3 ChoM mutants (Table S6), broth microdilution
[17] = E. coli, Ala-d3 ChoM mutants (Table S6), broth microdilution
[18] = S. typhimurium DA6192 (wild type, Table 2), broth microdilution
[19] = M. luteus, broth microdilution (CLSI), Mueller Hinton broth, 24 h at 37 °C, absorbance 600 nm, triplicate

| Compound | MIC [1, 13] [µM] | LC50, median (50%) lethal concentration [7, 14] | MIC [1, 18] [µM] | MIC [3, 19] [µM] | Minimum inhibitory concentrations [11] [µM] | Minimum inhibitory concentrations [12] [µM] | Minimum inhibitory concentrations [8] [µM] | Minimum inhibitory concentrations [9] [µM] | also measured |
| --- | --- | --- | --- | --- | --- | --- | --- | --- | --- |
| CN(C)[C@@H]1C(O)=C(C(N)=O)C(=O)[C@@]2(O)C(O)=C3C(=O)c4c(O)cccc4[C@@](C)(O)[C@H]3C[C@@H]12 [tetracycline] | <1 | UD (UD is for undetectable (>1000)) | – | – | – | – | – | – | MIC ([1]; Salmonella enterica, S. typhimurium DA6192 (wild type, Table 2), broth microdilution): < 1 µM; MIC ([2]; Staphylococcus aureus, ATCC6538, 24 h): < 0.5 µM; MIC ([3]; Micrococcus luteus, NCIMB13267, 24 h): < 0.5 µM; MIC ([4]; Pseudomonas aeruginosa, ATCC27853, 24 h): < 6 µM; MIC ([5]; Bacillus subtilis, ATCC6633, 24 h): < 0.5 µM; MIC ([6]; Escherichia coli, 24 h): < 1.5 µM; MIC [8]: < 1 µM; MIC [9]: < 1 µM |
| KWKVFKKAEKMIRNIRNKIVK [I8A] | – | – | – | – | – | – | – | – | MIC [2, 15]: > 25 µM; MIC [4, 16]: > 6 µM; MIC [6, 17]: > 3 µM; LC50, median (50%) lethal concentration ([7]; Ala-d3 ChoM mutants (Table S6)): > 250 µM |
| PGLa | – | – | – | – | – | – | – | – | mean hydrophobic moment [10]: 0.260 |
| KWKVLKKKIKMLRNRINGLVKAGPALKVKLQALAL-NH2 [CecM] | <1 | >250^d µM | <1 | <1 | <1 | <2 | <1 | <2 | – |
| KWKAFKKIEKMIRNIRNKIVK [V4A] | – | – | – | – | – | – | – | – | MIC [2, 15]: > 12 µM; MIC [4, 16]: > 3 µM; MIC [6, 17]: > 3 µM; hemolysis [7]: 1-2%; LC50, median (50%) lethal concentration ([7]; Ala-d3 ChoM mutants (Table S6)): > 250 µM |
| CCCCCCCCCC(=O)N[C@@H](Cc1c[nH]c2ccccc12)C(=O)N[C@H](CC(N)=O)C(=O)N[C@@H](CC(=O)O)C(=O)N[C@@H]1C(=O)NCC(=O)N[C@@H](CCCN)C(=O)N[C@@H](CC(=O)O)C(=O)N[C@H](C)C(=O)N[C@@H](CC(=O)O)C(=O)NCC(=O)N[C@H](CO)C(=O)N[C@@H]([C@H](C)CC(=O)O)C(=O)N[C@@H](CC(=O)c2ccccc2N)C(=O)O[C@@H]1C [daptomycin] | >60 | >250^c µM | – | <15 | – | – | – | – | MIC ([5]; B. subtilis, broth microdilution (CLSI), Mueller Hinton broth, serial twofold dilutions 100 to 0 μM, 24 h at 37 °C, absorbance 600 nm, triplicate): <7 µM; hemolysis ([7]; pH 7.2): 10% |
| CC[C@H](C)CCCCC(=O)N[C@@H](CCN)C(=O)N[C@H](C(=O)N[C@@H](CCN)C(=O)N[C@H]1CCNC(=O)[C@H]([C@@H](C)O)NC(=O)[C@H](CCN)NC(=O)[C@H](CCN)NC(=O)[C@H](CC(C)C)NC(=O)[C@@H](Cc2ccccc2)NC(=O)[C@H](CCN)NC1=O)[C@@H](C)O [polymyxin B] (X1-[Dab]T[Dab][Dab][Dab][dF]L[Dab][Dab]T; lactam 4-C (inferred); N-terminus assumed) | – | – | <0.5 | – | <0.5 | <2 | <0.5 | <6 | – |
| KWKVFKKIEKMGRNIRNGIVKAGPAIAVLGEAKAL-NH2 [CecB, Cecropin B] | <3 | >250^d µM | <3 | <1 | <3 | <3 | <3 | >6 | – |
| CO/N=C(\C(=O)N[C@@H]1C(=O)N2C(C(=O)O)=C(CSc3nc(=O)c(=O)[nH]n3C)CS[C@H]12)c1csc(N)n1 [ceftriaxone] | – | UD (UD is for undetectable (>1000)) | <1 | – | – | – | – | – | MIC ([1]; Salmonella enterica, S. typhimurium (Table 1), broth microdilution (CLSI), Mueller Hinton broth, absorbance 600 nm): < 1 µM; MIC ([2]; Staphylococcus aureus, ATCC6538, S. aureus, broth microdilution (CLSI), Mueller Hinton broth, serial twofold dilutions 100 to 0 μM, 24 h at 37 °C, absorbance 600 nm, triplicate): < 3 µM; MIC ([3]; Micrococcus luteus, NCIMB13267, M. luteus, broth microdilution (CLSI), Mueller Hinton broth, 24 h at 37 °C, absorbance 600 nm, triplicate): < 0.5 µM; MIC ([4]; Pseudomonas aeruginosa, ATCC27853, P. aeruginosa, broth microdilution (CLSI), Mueller Hinton broth, serial twofold dilutions 100 to 0 μM, 24 h at 37 °C, absorbance 600 nm, triplicate): > 25 µM; MIC ([5]; Bacillus subtilis, ATCC6633, B. subtilis, broth microdilution (CLSI), Mueller Hinton broth, serial twofold dilutions 100 to 0 μM, 24 h at 37 °C, absorbance 600 nm, triplicate): < 1 µM; MIC ([6]; Escherichia coli, E. coli, broth microdilution (CLSI), Mueller Hinton broth, serial twofold dilutions 100 to 0 μM, 24 h at 37 °C, absorbance 600 nm, triplicate): < 6 µM; MIC [8]: < 1 µM; MIC [9]: < 1 µM |
| magainin | – | – | – | – | – | – | – | – | mean hydrophobic moment [10]: 0.286 |
| KWKVFKKIEKMGRNIRNGIVK-NH2 [ChoC] | >12 | >250^d µM | >12 | <1 | >25 | >25 | >12 | >25 | – |
